Columns and labels:
[1] = tested on: K562 cells; experiment: Cell growth inhibition of K562 cells (CellTiter-Glo); type: cell-based; details: Homo sapiens, 120 h, 5 days
[2] = target: SOS1/KRAS-G12D (Homo sapiens (Human), UniProt Q07889); experiment: SOS1/KRAS-G12D binding inhibition assay (AlphaScreen); details: GST-SOS1 and 6*His KRAS-G12D, read-out: KrasG12D/SOS1 binding IC50
Procedure, shortened: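 GST-SOS1 (5 nM) pre-incubated 30 min with His6-KRAS-G12D (50 nM) in HEPES pH 7.4, NaCl, DTT, MgCl2, Tween-20, BSA; compound in 2% DMSO then added for 30 min at 4° C. GSH donor and Ni-NTA acceptor AlphaScreen beads, 2 h at 4° C; background-corrected % inhibition versus DMSO, IC50 by variable-slope nonlinear regression.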

[3] = tested on: Phospho-ERK1/2 in DLD1 cells; experiment: Phospho-ERK1/2 expression inhibition in DLD1 cells; type: cell-based; details: Homo sapiens, DLD-1, 4 hours, read-out: DLD1 pERK IC50
Procedure, shortened: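 DLD1 cells (15,000/well) were plated overnight, then exposed to compounds for 4 h at 37 °C. Cells were formaldehyde-fixed and methanol-permeabilized. Phospho-ERK1/2 was detected in-cell with rabbit anti-phospho-ERK1/2 and an IRDye 800CW secondary antibody, imaged on a LI-COR Odyssey.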

Sequence of SOS1/KRAS-G12D (Q07889 564-1049 limits assumed): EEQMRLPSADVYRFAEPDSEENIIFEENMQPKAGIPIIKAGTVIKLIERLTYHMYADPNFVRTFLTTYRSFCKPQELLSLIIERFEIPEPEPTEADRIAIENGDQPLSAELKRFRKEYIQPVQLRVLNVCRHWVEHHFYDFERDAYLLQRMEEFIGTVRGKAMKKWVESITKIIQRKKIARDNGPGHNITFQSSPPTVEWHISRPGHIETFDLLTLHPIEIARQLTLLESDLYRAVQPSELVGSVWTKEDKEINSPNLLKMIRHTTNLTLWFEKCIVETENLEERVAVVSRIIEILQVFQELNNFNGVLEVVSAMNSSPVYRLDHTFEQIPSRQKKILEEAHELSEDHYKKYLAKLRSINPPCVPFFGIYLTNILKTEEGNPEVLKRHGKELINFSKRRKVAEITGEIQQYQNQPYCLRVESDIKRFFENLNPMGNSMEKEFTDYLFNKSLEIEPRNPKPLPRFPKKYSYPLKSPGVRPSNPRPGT

| Compound | GI50 [1] | IC50 [2] | IC50 [3] |
| --- | --- | --- | --- |
| C[C@@H](Nc1ccnc2ccc(N3CCN(C(=O)[C@H]4CCOC4)CC3)cc12)c1cccc(C(F)F)c1F [Compound 14, (4-(4-(((R)-1-(3-(difluoromethyl)-2-fluorophenyl)ethyl)amino)quinolin-6-yl)piperazin-1-yl)((S)-tetrahydrofuran-3-yl)methanone] | ≤ 100 nM | ≤ 10 nM | 150 to 500 nM |
| Cc1c([C@@H](C)Nc2ccnc3ccc(N4CCN(c5cnn(C)c5)CC4)cc23)cccc1C(F)(F)F [Compound 24, (R)-6-(4-(1-methyl-1H-pyrazol-4-yl)piperazin-1-yl)-N-(1-(2-methyl-3-(trifluoromethyl)phenyl)ethyl)quinolin-4-amine] | 100 to 500 nM | > 100 nM | > 500 nM |
| Cc1c([C@@H](C)Nc2ccnc3ccc(N4C[C@H](C)NC[C@H]4C)cc23)cccc1C(F)(F)F [Compound 54, 6-((2R,5S)-2,5-dimethylpiperazin-1-yl)-N-((R)-1-(2-methyl-3-(trifluoromethyl)phenyl)ethyl)quinolin-4-amine] | 100 to 500 nM | 10 to 100 nM | > 500 nM |
| CO[C@]1(c2ccc3nccc(N[C@H](C)c4cccc(C#N)c4C)c3c2)CCN(C(C)=O)C1 [Compound 88, 3-((R)-1-((6-((S)-1-acetyl-3-methoxypyrrolidin-3-yl)quinolin-4-yl)amino)ethyl)-2-methylbenzonitrile] | 100 to 500 nM | 10 to 100 nM | ≤ 150 nM |
| CNC(=O)N1CC[C@@](OC)(c2ccc3nccc(N[C@H](C)c4cccc(C(F)F)c4F)c3c2)C1 [Compound 101, (R)-3-(4-(((R)-1-(3-(difluoromethyl)-2-fluorophenyl)ethyl)amino)quinolin-6-yl)-3-methoxy-N-methylpyrrolidine-1-carboxamide] | 100 to 500 nM | ≤ 10 nM | > 500 nM |
| Cc1c([C@@H](C)Nc2ccnc3ccc(N4CCN(C(=O)C(C)C)CC4)cc23)cccc1C(F)(F)F [Compound 46, (R)-2-methyl-1-(4-(4-((1-(2-methyl-3-(trifluoromethyl)phenyl)ethyl)amino)quinolin-6-yl)piperazin-1-yl)propan-1-one] | 100 to 500 nM | 10 to 100 nM | 150 to 500 nM |
| Cc1c([C@@H](C)Nc2ccnc3ccc(N4CCC(N(C)C)CC4)cc23)cccc1C(F)(F)F [Compound 32, (R)-6-(4-(dimethylamino)piperidin-1-yl)-N-(1-(2-methyl-3-(trifluoromethyl)phenyl)ethyl)quinolin-4-amine] | 100 to 500 nM | 10 to 100 nM | > 500 nM |
| CC(=O)N1C[C@@H](C)N(c2ccc3nccc(N[C@H](C)c4cccc(C(F)(F)F)c4C)c3c2)C[C@@H]1C [Compound 57, 1-((2S,5R)-2,5-dimethyl-4-(4-(((R)-1-(2-methyl-3-(trifluoromethyl)phenyl)ethyl)amino)quinolin-6-yl)piperazin-1-yl)ethan-1-one] | 100 to 500 nM | > 100 nM | > 500 nM |
| CC(=O)N1CCC(F)(c2ccc3nccc(NC(C)c4cccc(C(F)F)c4F)c3c2)CC1 (stereo not drawn) [Compound 84, 1-(4-(4-((1-(3-(difluoromethyl)-2-fluorophenyl)ethyl)amino)quinolin-6-yl)-4-fluoropiperidin-1-yl)ethan-1-one] | ≤ 100 nM | ≤ 10 nM | 150 to 500 nM |
| CC(C)C(=O)N1CCN(c2ccc3nccc(N[C@H](C)c4cccc(C(F)F)c4F)c3c2)CC1 [Compound 17, (R)-1-(4-(4-((1-(3-(difluoromethyl)-2-fluorophenyl)ethyl)amino)quinolin-6-yl)piperazin-1-yl)-2-methylpropan-1-one] | 100 to 500 nM | ≤ 10 nM | ≤ 150 nM |
| CC(=O)N1CCN(c2ccc3nccc(N[C@H](C)c4cccc(C(F)F)c4F)c3c2)CC1 [Compound 12, (R)-1-(4-(4-((1-(3-(difluoromethyl)-2-fluorophenyl)ethyl)amino)quinolin-6-yl)piperazin-1-yl)ethan-1-one] | ≤ 100 nM | ≤ 10 nM | ≤ 150 nM |
| C[C@@H](Nc1ccnc2ccc(N3CC[C@@H](N(C)C)C3)cc12)c1cccc(C(F)F)c1F [Compound 31, N-((R)-1-(3-(difluoromethyl)-2-fluorophenyl)ethyl)-6-((R)-3-(dimethylamino)pyrrolidin-1-yl)quinolin-4-amine] | ≤ 100 nM | ≤ 10 nM | > 500 nM |
| Cc1c([C@@H](C)Nc2c(C#N)cnc3ccc(N4CCN(C(=O)C5CCOC5)CC4)cc23)cccc1C(F)(F)F (stereo partly drawn) [Compound 3, 4-(((R)-1-(2-methyl-3-(trifluoromethyl)phenyl)ethyl)amino)-6-(4-(tetrahydrofuran-3-carbonyl)piperazin-1-yl)quinoline-3-carbonitrile] | > 500 nM | > 100 nM | > 500 nM |
| Cc1c([C@@H](C)Nc2ccnc3ccc(N4CC[C@@H](N)C4)cc23)cccc1C(F)(F)F [Compound 20, 6-((R)-3-aminopyrrolidin-1-yl)-N-((R)-1-(2-methyl-3-(trifluoromethyl)phenyl)ethyl)quinolin-4-amine] | > 500 nM | > 100 nM | > 500 nM |
| CC(=O)N1CCCN(c2ccc3nccc(N[C@H](C)c4cccc(C(F)(F)F)c4C)c3c2)CC1 [Compound 62, (R)-1-(4-(4-((1-(2-methyl-3-(trifluoromethyl)phenyl)ethyl)amino)quinolin-6-yl)-1,4-diazepan-1-yl)ethan-1-one] | > 500 nM | > 100 nM | > 500 nM |
| C[C@@H](Nc1ccnc2c(F)cc(N3CC[C@@H](N)C3)cc12)c1cccc(C(F)F)c1F [Compound 30, 6-((R)-3-aminopyrrolidin-1-yl)-N-((R)-1-(3-(difluoromethyl)-2-fluorophenyl)ethyl)-8-fluoroquinolin-4-amine] | 100 to 500 nM | 10 to 100 nM | > 500 nM |
| C[C@@H](Nc1ccnc2ccc(N3CC[C@@H](O)C3)cc12)c1cccc(C(F)F)c1F [Compound 42, (R)-1-(4-(((R)-1-(3-(difluoromethyl)-2-fluorophenyl)ethyl)amino)quinolin-6-yl)pyrrolidin-3-ol] | ≤ 100 nM | ≤ 10 nM | ≤ 150 nM |
| CC(=O)N1CCC(c2ccc3nccc(N[C@H](C)c4cccc(C(F)F)c4F)c3c2)CC1 [Compound 13, (R)-1-(4-(4-((1-(3-(difluoromethyl)-2-fluorophenyl)ethyl)amino)quinolin-6-yl)piperidin-1-yl)ethan-1-one] | ≤ 100 nM | ≤ 10 nM | 150 to 500 nM |
| CC(=O)N1CC=C(c2ccc3nccc(N[C@H](C)c4cccc(C(F)F)c4F)c3c2)C1 [Compound 97, (R)-1-(3-(4-((1-(3-(difluoromethyl)-2-fluorophenyl)ethyl)amino)quinolin-6-yl)-2,5-dihydro-1H-pyrrol-1-yl)ethan-1-one] | 100 to 500 nM | 10 to 100 nM | > 500 nM |
| CC(=O)N1CCN(c2ccc3nccc(N[C@H](C)c4cccc(C(F)(F)F)c4C)c3c2)C[C@H]1C [Compound 51, 1-((R)-2-methyl-4-(4-(((R)-1-(2-methyl-3-(trifluoromethyl)phenyl)ethyl)amino)quinolin-6-yl)piperazin-1-yl)ethan-1-one] | 100 to 500 nM | 10 to 100 nM | > 500 nM |
| CC(=O)N[C@@H]1CCN(c2ccc3nccc(N[C@H](C)c4cccc(C(F)(F)F)c4C)c3c2)C1 [Compound 38, N-((R)-1-(4-(((R)-1-(2-methyl-3-(trifluoromethyl)phenyl)ethyl)amino)quinolin-6-yl)pyrrolidin-3-yl)acetamide] | > 500 nM | > 100 nM | > 500 nM |
| CN[C@@H]1CCN(c2ccc3nccc(N[C@H](C)c4cccc(C(F)F)c4F)c3c2)C1 [Compound 44, N-((R)-1-(3-(difluoromethyl)-2-fluorophenyl)ethyl)-6-((R)-3-(methylamino)pyrrolidin-1-yl)quinolin-4-amine] | ≤ 100 nM | ≤ 10 nM | > 500 nM |
| CC(=O)N1CCN(c2ccc3nccc(N[C@H](C)c4cccc(C(F)(F)F)c4C)c3c2)CC1(C)C [Compound 36, (R)-1-(2,2-dimethyl-4-(4-((1-(2-methyl-3-(trifluoromethyl)phenyl)ethyl)amino)quinolin-6-yl)piperazin-1-yl)ethan-1-one] | 100 to 500 nM | 10 to 100 nM | > 500 nM |
| Cc1c([C@@H](C)Nc2ccnc3ccc(N4CC5CC(C4)N5)cc23)cccc1C(F)(F)F [Compound 58, 6-(3,6-diazabicyclo[3.1.1]heptan-3-yl)-N-((R)-1-(2-methyl-3-(trifluoromethyl)phenyl)ethyl)quinolin-4-amine] | 100 to 500 nM | 10 to 100 nM | > 500 nM |
| CO[C@@]1(c2ccc3nccc(N[C@H](C)c4cccc(C(F)F)c4F)c3c2)CCN(C(C)=O)C1 [Compound 75, 1-((R)-3-(4-(((R)-1-(3-(difluoromethyl)-2-fluorophenyl)ethyl)amino)quinolin-6-yl)-3-methoxypyrrolidin-1-yl)ethan-1-one] | 100 to 500 nM | ≤ 10 nM | > 500 nM |
| Cc1c([C@@H](C)Nc2ccnc3ccc(N4CCn5c(C)nnc5C4)cc23)cccc1C(F)(F)F [Compound 45, (R)-N-(1-(2-methyl-3-(trifluoromethyl)phenyl)ethyl)-6-(3-methyl-5,6-dihydro-[1,2,4]triazolo[4,3-a]pyrazin-7(8H)-yl)quinolin-4-amine] | 100 to 500 nM | 10 to 100 nM | > 500 nM |

Reference: US20240208909A1, “SUBSTITUTED QUINOLINE DERIVATIVES HAVING SOS1 INHIBITION ACTIVITIES AND USES THEREOF” (Accutar Biotechnology Inc., priority 2022, published 2024)
